Measurements from patent US20220380371A1, “MLL1 INHIBITORS AND ANTI-CANCER AGENTS” (NOVARTIS AG, priority 2019, published 2022).
pIC50: −log10 of the molar value. Like-named read-outs stand apart in the source and are kept apart here.

Tests used:
[1] = molecular target: wild type MLL1 four-member complex (MLL1-4C) (Homo sapiens, UniProt Q03164); experiment: MLL1 LC-MS Assay; assay type: biochemical
Experimental: The compounds of the present disclosure were serially and separately diluted 3-fold in DMSO to obtain a total of eight or twelve concentrations. Then the test compounds at each concentration (120 nL of each) were transferred by Mosquito into white Proxiplate plus 384-well microplate (PerkinElmer). Solutions (6 μL) of 60 nM wild type MLL1 four-member complex (MLL1-4C) and 5 μM SAM in the reaction buffer (20 mM Tris-HCl, pH 8.0, 0.01% Tween 20, 1 mM DTT, 10 mM MgCl2, 0.01% BSA) were added to the wells that were then incubated with the test compound for 20 min. A 6 μL solution of 20 μM of the peptide substrate H3K4me0 (histone H3[1-21]-Biotin) in the reaction buffer was added to initiate each reaction. The final components in the reaction solution include 30 nM MLL1-4C, 2.5 μM SAM, and 10 μM H3K4me0 with varying concentration of the compounds. A positive control consisted of 30 nM MLL1-4C, 2.5 μM SAM, and 10 μM substrate in the absence of the test compound, and a negative control consisted of 2.5 μM SAM, and 10 μM substrate only. Each reaction was incubated at rt for 120 min, then stopped by addition of 3 μL per of quench solution (2.5% TFA with 320 nM d4-SAH). The reaction mixture was centrifuged (Eppendorf centrifuge 5810, Rotor A-4-62) for 2 min at 2000 rpm. The SAH production from the enzymatic assays were monitored by LC-MS/MS on an API 4000 triple quadrupole mass spec with Turbolon Spray (Applied Biosystem) coupled with Prominenece UFLC (Shimazu). The level of SAH production were then normalized based on the values coming from the positive and negative controls to give percent enzyme activities. The data were then fit to a dose response equation using the program Helios (Novartis) to get the IC50 values of the test compounds.

H3K4me3 in MV4-11 cells = experiment: MV4-11 H3K4me3 Cellular ELISA Assay; assay type: cell-based; details: Homo sapiens, MV4-11, 48 h
Experimental: MV4-11 H3K4me3 Cellular ELISA Assay
MV4-11 (ATCC® CRL-9591™) was cultured with RPMI1640 medium (Thermo Fisher Scientific, cat #11875) supplemented with 10% FBS (Thermo Fisher Scientific, cat #10099141) and 50 U/ml Penicillin-Streptomycin (Thermo Fisher Scientific, cat #10378016) in humidified incubator at 37° C., 5% CO2.
200 nL compounds dissolved in DMSO were serially diluted at 1:3 ratio for 12 points starting from 10 mM and dispensed into each wells of cell culture plates (PDL-coated ViewPlate-384 Black, FTC, PerkinElmer, #6007710). 3,750 MV4-11 cells in 40 μL culture medium were seeded into each well and treated with desired concentration for 48 hours. After treatment, wash cells with cold phosphate based buffer (PBS, pH 7.4) and aspirate the remaining PBS buffer. Crude histone lysate was extracted by 40 μL 0.5M HCl for 1 hour in 4° C. following neutralization by adding 32 μL neutralization buffer (0.5M Sodium phosphate dibasic, pH ˜12.5, 1.25 mM Dithiothreitol, Promega #V3151, Protease Inhibitor Cocktail, Sigma #8340) for each well. 5 μL and 20 μL of histone lysate was loaded to ELISA plate (384 Well Plates, PE HB, White, 6005620) for detection of total H3 and H3K4me3, respectively. Shake the plates gently in 4° C. for overnight. After histone binding, plates were washed with 80 μL PBS/T (PBS with 0.05% Tween-20) and blocked with 50 μL 3% BSA diluted in PBS/T per well for 1 hour. Incubate wells with primary antibody for 1 hour at room temperature using anti-H3K4me3 (CST #9727) and anti-total H3 (CST #9715) diluted 1:2000 in 3% BSA. Plates were then washed with PBS/T for 3 times and incubated with horseradish peroxidase (HRP) conjugated secondary antibody (CST #7074, 1:5000) for 1 hour at room temperature. The abundance of H3K4me3 and total H3 were measured by ECL substrates chemiluminescence (Pierce, #34080) on a plate reader (PerkinElmer EnVison 2104 Mutilable Reader). Percentage inhibition was calculated against DMSO control after normalization of H3K4me3 signal to H3 signal for individual samples. The data were then fit to a dose response curve using GraphPad Prism for IC50 calculation.

MV4-11 cells = experiment: MV4-11 6-Day Cell Growth CTG (CellTiter-Glo) Assay; assay type: cell-based; details: Homo sapiens, MV4-11, 144 h, MV4-11 cell growth CellTiter-Glo, 6 days
Experimental: MV4-11 6-Day Cell Growth CTG (CellTiter-Glo) Assay
Acute myeloid leukemia cell MV4-11 (ATCC® CRL-9591™) was cultured with RPMI 1640 medium (Thermo Fisher Scientific, cat #11875) supplemented with 10% FBS (Thermo Fisher Scientific, cat #10099141) in humidified incubator at 37° C., 5% CO2. To assess the effect of MLL1 inhibition on cell growth, the compound of the present invention was dissolved in DMSO and serially diluted at 1:3 for 12 points starting from 10 mM then 200 nL for the replicate of each dose per well was dispensed to Viewplate-384 Black (Perkin Elmer). Exponentially growing MV4-11 cells were seeded at the density of 300 cells per well in 40 μL to the plate, so the final compound working concentration starts from 50 μM. After 6 days, 40 μL CellTiter-Glo (Promega, cat #G7573) was added into the cell culture well and luminescence was read with Envision (Perkin Elmer) to determine the viable cells. The percentage inhibition was calculated against the samples treated with DMSO only and the data were used for dose response curve fitting in GraphPad Prism to get the IC50 of representative compound of present invention, which reflects the inhibition of MLL1 activity.

SMILES	pIC50 ([1]; read-out: LCMS)	pIC50 (H3K4me3 in MV4-11 cells)	pIC50 (MV4-11 cells)	pIC50 ([1]; read-out: MLL1 LCMS)
CCNC(=O)CC[C@@]1(N)CCN(c2cc(Cl)cc(Br)c2Cn2cnc3c(N)ncnc32)C1 (single isomer, unassigned) [Example 36]	7.00 to 7.30	< 5.52	–	–
Nc1ncnc2c1ncn2Cc1c(Br)cc(Cl)cc1N1CC[C@](N)(CCc2nn[nH]n2)C1 (single isomer, unassigned) [Example 39]	> 7.30	< 5.52	–	–
Nc1ncnc2c1ncn2Cc1c(N2CC[C@](N)(C(=O)NC3CC3)C2)ccc(F)c1C(O)C(F)(F)F (single isomer, unassigned) [Example 82]	< 7.00	> 5.72	5.52 to 5.70	–
Nc1ncnc2c1ncn2Cc1c(N2CC[C@](N)(C(=O)NC3CC3)C2)ccc(F)c1CC(F)(F)F [Example 6]	> 7.30	> 5.72	> 5.70	–
CCc1c(C(F)(F)F)ccc(N2CC[C@](N)(C(=O)NC3CC3)C2)c1Cn1cnc2c(N)ncnc21 [Example 12]	7.00 to 7.30	> 5.72	> 5.70	–
C=Cc1cc(Cl)cc(N2CC[C@](N)(c3nc[nH]n3)C2)c1Cn1cnc2c(N)ncnc21 [Example 24]	> 7.30	> 5.72	> 5.70	–
CCc1cc(Cl)cc(N2CC[C@](N)(c3nc[nH]n3)C2)c1Cn1cnc2c(N)ncnc21 [Example 25]	> 7.30	> 5.72	> 5.70	–
Nc1ncnc2c1ncn2Cc1c(N2CC[C@](N)(c3ccccc3)C2)ccc(F)c1C(F)(F)F [Example 26]	7.00 to 7.30	5.52 to 5.72	5.52 to 5.70	–
Nc1ncnc2c1ncn2Cc1c(Br)cc(Cl)cc1N1CC[C@](N)(c2cc(C(F)(F)F)ccn2)C1 [Example 27]	> 7.30	< 5.52	–	–
COC(=O)[C@@]1(N)CCN(c2cc(Cl)cc(C3CCC3)c2Cn2cnc3c(N)ncnc32)C1 [Example 29]	> 7.30	> 5.72	> 5.70	–
Nc1ncnc2c1ncn2Cc1c(Br)cc(Cl)cc1N1CC[C@](N)(COCC(=O)NC2CC2)C1 [Example 30]	< 7.00	< 5.52	–	–
CCOC(=O)CC[C@@]1(N)CCN(c2cc(Cl)cc(Br)c2Cn2cnc3c(N)ncnc32)C1 [Example 34]	< 7.00	> 5.72	–	–
CCc1cc(Cl)cc(N2CC[C@](N)(CCc3nnc(NC)s3)C2)c1Cn1cnc2c(N)ncnc21 [Example 35]	7.00 to 7.30	< 5.52	–	–
NC(=O)CCC1(N)CCN(c2cc(Cl)cc(Br)c2Cn2cnc3c(N)ncnc32)C1 (stereo not shown) [Example 37]	< 7.00	< 5.52	–	–
CCNC(=O)CC[C@@]1(N)CCN(c2cc(Cl)cc(CC)c2Cn2cnc3c(N)ncnc32)C1 [Example 38]	> 7.30	< 5.52	–	–
CCc1cc(Cl)cc(N2CC[C@](N)(CCc3nn[nH]n3)C2)c1Cn1cnc2c(N)ncnc21 [Example 40]	< 7.00	< 5.52	–	–
COC(=O)NCc1c(F)ccc(N2CC[C@](N)(C(=O)NC3CC3)C2)c1Cn1cnc2c(N)ncnc21 [Example 71]	> 7.30	< 5.52	–	–
Cn1nnc([C@@]2(N)CCN(c3cc(Cl)cc(Br)c3Cn3cnc4c(N)ncnc43)C2)n1 [Example 91, (R)-9-(2-(3-amino-3-(2-methyl-2H-tetrazol-5-yl)pyrrolidin-1-yl)-6-bromo-4-chlorobenzyl)-9H-purin-6-amine]	7.00 to 7.30	< 5.52	–	–
Nc1ncnc2c1ncn2Cc1c(N2CC[C@@](N)(C(=O)NC3CC3)C2)ccc2ccccc12 [Example 166]	–	> 5.72	–	7.00 to 7.30
Nc1ncnc2c1ncn2Cc1c(N2CC[C@](N)(C(=O)NC3CC3)C2)ccc2cc(Br)ccc12 [Example 167]	–	> 5.72	–	> 7.30

Further lines, results first:

pIC50 ([1]; read-out: LCMS)	pIC50 (H3K4me3 in MV4-11 cells)	pIC50 (MV4-11 cells)	pIC50 ([1]; read-out: MLL1 LCMS)	SMILES
7.00 to 7.30	> 5.72	5.52 to 5.70	–	Nc1ncnc2c1ncn2Cc1c(Br)c(Cl)c2c(c1N1CC[C@](N)(C(=O)NC3CC3)C1)CCC2 (stereo in doubt) [Example 42]
> 7.30	< 5.52	> 5.70	–	Nc1ncnc2c1ncn2Cc1c(N2CC[C@](N)(C(=O)NC3CC3)C2)ccc(Cl)c1C1CC1 (stereo in doubt) [Example 97]
7.00 to 7.30	> 5.72	> 5.70	–	C#Cc1c(F)ccc(N2CC[C@](N)(C(=O)NC3CC3)C2)c1Cn1cnc2c(N)ncnc21 [Example 5]
7.00 to 7.30	> 5.72	< 5.52	–	Nc1ncnc2c1ncn2Cc1c(CC(F)(F)F)cc(Cl)cc1N1CC[C@](N)(C(=O)NC2CC2)C1 [Example 7]
7.00 to 7.30	> 5.72	> 5.70	–	Nc1ncnc2c1ncn2Cc1c(N2CC[C@](N)(C(=O)NC3CC3)C2)ccc(F)c1C1CC1 [Example 8]
< 7.00	> 5.72	> 5.70	–	C=Cc1c(F)ccc(N2CCC(N)(C(=O)NC3CC3)C2)c1Cn1cnc2c(N)ncnc21 (stereo not shown) [Example 9]
> 7.30	> 5.72	> 5.70	–	CCc1c(F)ccc(N2CC[C@](N)(C(=O)NC3CC3)C2)c1Cn1cnc2c(N)ncnc21 [Example 10]
> 7.30	> 5.72	> 5.70	–	Cc1c(C(F)(F)F)ccc(N2CC[C@](N)(C(=O)NC3CC3)C2)c1Cn1cnc2c(N)ncnc21 [Example 11]
> 7.30	> 5.72	> 5.70	–	Nc1ncnc2c1ncn2Cc1c(N2CC[C@](N)(C(=O)NC3CC3)C2)ccc(F)c1Br [Example 13]
7.00 to 7.30	< 5.52	–	–	COc1ccc(Br)c(Cn2cnc3c(N)ncnc32)c1N1CC[C@](N)(C(=O)NC2CC2)C1 [Example 21]
< 7.00	< 5.52	–	–	CN(C)Cc1c(Cl)cc(Cl)c(N2CC[C@](N)(C(=O)NC3CC3)C2)c1Cn1cnc2c(N)ncnc21 [Example 74]
< 7.00	< 5.52	–	–	CN(C)Cc1cc(Cl)c(Cl)c(N2CC[C@](N)(C(=O)NC3CC3)C2)c1Cn1cnc2c(N)ncnc21 [Example 89, (R)-3-amino-1-(2-((6-amino-9H-purin-9-yl)methyl)-5,6-dichloro-3-((dimethylamino)methyl)phenyl)-N-cyclopropylpyrrolidine-3-carboxamide]
–	< 5.52	–	< 7.00	Cc1ccc(Cl)c(Cn2cnc3c(N)ncnc32)c1N1CCC(N)(C(=O)NC2CC2)C1 (stereo not shown) [Example 157]
